Data on one substance can be found in US20100119483A1, “PEPTIDE VIRAL ENTRY INHIBITORS” (Schering Corporation, priority 2004, published 2010).

“And” between values parts separate entries of the source, which are not always exact repeats. Equal values may be shown once.

In experiment [1] the test system is HCV pseudoparticles. Briefly: Fusion/attachment experiments with HCV pseudoparticles (4° C. attachment, 37° C. entry). It counts as cell-based, hepatitis C virus. The conditions noted are these: for RLU: single replicates, listed as V-2b. Here is the method: The entry process was allowed to complete after the cells were washed and incubated at 37° C. for 72 hours. If the peptide blocked or interfered with the attachment, few HCVpp particles should bind to the cells and lead to reduced luciferase signal. The peptide had approximately 50% inhibition whereas the anti-CD81 antibody inhibited entry by 20%. Alternatively, an explanation could be that the cell-associated peptide or antibody had no effects on virus attachment, but rather inhibit post-attachment steps, e.g. fusion. When we allowed the HCV pseudoparticles to attach first at 4° C., a nonpermissive temperature for fusion, and added the peptide or anti-CD81 antibody when post-attachment events occurred, anti-CD81 antibody almost inhibited entry by 100%, whereas, the peptide inhibited by approximately 80%.
The incubation scheme for the fusion/attachment experiments is summarized as follows: […]

In experiment [2] the test system is amphotropic murine leukemia virus. Briefly: AMLV pseudotyped virus entry counter-screen, same infection protocol. Type of experiment: cell-based. The conditions noted are these: peptide library screen; cell entry inhibition vs uninhibited control. In a few lines: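 Huh7 hepatoma cells pre-incubated with peptide 1 h at 37 °C, then infected with AMLV pseudotyped virus and cultured 72 h at 37 °C, 5% CO2 before luciferase read-out. Peptides screened at 100 ug/ml, then 10-point 3-fold titrations from 100 ug/ml.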
In general terms: The purpose of a counterscreen is to sort out artefacts and off-target activity.

The subject of experiment [3] is HCV pseudoparticles. Briefly: HCV pseudoparticle (HCVpp) entry assay in Huh7 hepatoma cells, luciferase readout. It counts as cell-based, hepatitis C virus. Conditions: for RLU units: HCVpp. In a few lines:
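Huh7 cells were pre-treated with peptide for 1 h at 37 °C before exposure to HCV E1/E2-pseudotyped HIV luciferase particles made in 293T cells, followed by 72 h culture and luciferase readout. Peptides were tested at 10 points, 3-fold, from 100 ug/ml; particles lacking envelope served as non-specific entry control.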

Where [4] appears, read: A + P (attachment + post attachment).

In the case of “V-S-F-A-I-K-W-E-Y-V-L-L-L-F-L-L [SEQ ID NO: 77]”, in the experiment on HCV pseudoparticles [1], the “step of HCVpp entry inhibited” value is given as “largely inhibits a post-attachment step”. Besides, the “% control peptide” value in the experiment on HCV pseudoparticles [1] (A (attachment)) is listed as 39 % control; in the experiment on HCV pseudoparticles [1] (setting [4]), 6 % control; in the experiment with HCV pseudoparticles [1] (P (post attachment)), 11 % control. The figures for the “RLU average (peptide)” value in the experiment on HCV pseudoparticles [1] (A (attachment)), with HCV pseudoparticles [1] (setting [4]) and in the experiment with HCV pseudoparticles [1] (P (post attachment)) were 5942 RLU, 863 RLU and 1647 RLU, respectively. The RLU in the experiment on HCV pseudoparticles [1] (A (attachment)) was 5196 RLU and 7987 RLU and 4644 RLU; with HCV pseudoparticles [1] (setting [4]), 527 RLU and 1541 RLU and 520 RLU; in the experiment with HCV pseudoparticles [1] (P (post attachment)), 1984 RLU and 2412 RLU and 545 RLU. Besides, the inhibition of entry entry in the experiment on HCV pseudoparticles [1] (HCV pseudoparticles attached first at 4° C., substance added when post-attachment events occurred) is on record as “approximately 80%”; in the experiment with HCV pseudoparticles [1] (pre-incubated with cells at 4° C., then HCV pseudoparticles at 4° C., washed, 37° C. for 72 hours (attachment)), “approximately 50%”. The substance also yielded an AMLVpp % inh in experiment [2] of 3%. Moreover, the RLU units is 1044 RLU and 833 RLU with HCV pseudoparticles [3] (peptide conc. 0.091515 log ug/ml, 1st and 2nd trial); 544 RLU and 500 RLU with HCV pseudoparticles [3] (peptide conc. 0.568636 log ug/ml, 1st and 2nd trial); 11 RLU and 10 RLU in the experiment with HCV pseudoparticles [3] (peptide conc. 2 log ug/ml, 1st and 2nd trial); 1494 RLU in the experiment with HCV pseudoparticles [3] (peptide conc. not given, 1st trial); 1279 RLU and 1283 RLU in the experiment with HCV pseudoparticles [3] (peptide conc. −0.38561 log ug/ml, 1st and 2nd trial); 1866 RLU and 1762 RLU with HCV pseudoparticles [3] (peptide conc. −0.86273 log ug/ml, 1st and 2nd trial). Further, the RLU units in the experiment with HCV pseudoparticles [3] (peptide conc. −1.33985 log ug/ml (three lines), 1st and 2nd trial) is 2564 RLU and 2703 RLU and 2998 RLU and 3512 RLU and 2090 RLU and 3359 RLU. Further, the HCVpp % inh in the experiment on HCV pseudoparticles [3] (peptide library screen, first screened at 100 ug/ml, cell entry inhibition vs uninhibited control) is reported as 96%.
